Entries after “also recorded” stand apart in the source; their conditions may differ.
What was measured:
[1] = test system: New Zealand White rabbits; conditions: 2.5 mg/kg/day; cited from earlier work
[2] = test system: Watanabe rabbits; assay: Lipid profile (plasmatic cholesterol, triglycerides, HDL, LDL) in treated Watanabe rabbits; assay type: in vivo, rabbit
Experimental: 2. […] The cholesterol is assayed according to an enzymatic colorimetric test using a cholesterol-esterase and a cholesterol-oxidase, followed by a reaction with a peroxidase. The latter reacts with hydrogen peroxide and releases a red derivative the stain intensity of which (measured between 550 and 700 nm) is directly proportional to the cholesterol concentration. The triglyceride assay is also based on this principle, using a lipase which releases glycerol, and a peroxidase which reacts with the hydrogen peroxide and forms a red compound. The HDL cholesterol is assayed by an enzymatic calorimetric test in two phases. The first selects the different lipid fractions by means of dextran sulphate. […] The results are expressed in mmol/l. The kits necessary for all these assays are supplied by RANDOX (Montpellier, France).

[3] = test system: New Zealand White rabbit; conditions: cited from earlier work
[4] = test system: Watanabe rabbits; conditions: 16 weeks; cited from earlier work
[5] = Monitoring of the animals: weight and food intake; assay type: in vivo, rabbit; conditions: not included in the study
Experimental: Twenty-four Watanabe rabbits (Centre de Production Animale, Olivet, France) which are hyperlipidaemic due to an hereditary LDL-receptor (LDL-R) deficiency, homozygous, and six weeks old, are used. Each animal is placed in an individual cage and receives a food ration of 200 g to 250 g per day.
(§1) The food intake is measured daily and the animals are weighed once a week. Plasma samples are taken every fifteen days from the marginal ear vein. The blood, collected in heparin tubes, is centrifuged (4° C., 2000 g, 15 minutes). Part of the plasma is deproteinized by a solution of sulphosalicylic acid (30%) then divided into aliquot fractions with a view to an assay of the amino acids. The remainder of the plasma is aliquoted into several fractions of about 200 μl, and stored at −80° C.

[6] = test system: hypercholesterolemic rabbits; conditions: enriched diet over 12 to 16 weeks; cited from earlier work
[7] = test system: Watanabe rabbits; assay: Macroscopic study of the aortas: surface area of the lesions by planimetry; assay type: in vivo, rabbit
Experimental: After eight weeks, a sampling of serum (about 1 ml) is carried out then the animals are anaesthetized with an injection of heparinized pentobarbital, and finally sacrificed.
On the day of sacrifice, after anaesthesia, in the shortest possible time, the animal is opened along the whole length of the cervico-thoracic region. The aorta is incised as low as possible. Using curved scissors, the aorta is removed from the aortic arch as far as the level of the iliac bifurcation following the vertebral column. The aorta is first cleaned in physiological serum and the fatty tissues are removed from its external tunica. It is fixed for 20 minutes in a 2% paraformaldehyde-2% glutaraldehyde mixture then opened along its length. It is then again immersed in the same fixer for 24 hours, after which the aorta is rinsed in 70% ethanol, then stained with Soudan IV for 15 minutes. It is once again rinsed in 80% ethanol for 20 minutes then under running water for 1 hour (22). […] The images are analyzed by means of planimetry software (Scion Image) which makes it possible to determine the surface of the lesions. Finally the aorta is fixed in the same fixer with a view to microscopic study.

[8] = rabbit, in vivo
Experimental: Each animal is placed in an individual cage and receives a food ration of 200 g to 250 g per day.
as §1
The plasmatic arginine, ornithine and citrulline concentrations are determined on a JEOL (Tokyo, Japan) amino acid analyzer. The amino acids are separated by cation-exchange chromatography. On leaving the column, they are developed by a ninhydrin stain reaction. The reaction obtained is quantified by photometry at 570 and 440 nm. The results are expressed in μmol/l.

Structure (SMILES): CC(C)c1c(C(=O)Nc2ccccc2)c(-c2ccccc2)c(-c2ccc(F)cc2)n1CC[C@@H](O)C[C@@H](O)CC(=O)O [atorvastatin, Atorvastatin, reference compound]
- size of the lesions [1]: reduction in the size of the lesions
- effect on LDL concentration ([2]; FIG. 6, during treatment): induces a reduction
- reduction of the LDL fraction ([2]; LDL calculated by Friedewald formula, between T0 and T8): 27.16%

Structure (SMILES): CC[C@H](C)C(=O)O[C@H]1C[C@@H](C)C=C2C=C[C@H](C)[C@H](CC[C@@H]3C[C@@H](O)CC(=O)O3)[C@H]21 [lovastatin]
- reduction in cholesterol ([3]; 16 weeks, New Zealand White rabbit): 32%
- plaque progression ([3]; New Zealand White rabbits): slowed down the plaque progression

Structure (SMILES): O=C(O)C[C@H](O)C[C@H](O)/C=C/c1c(C2CC2)nc2ccccc2c1-c1ccc(F)cc1 [pitavastatin]
- reduction in plasmatic cholesterol [4]: 28.6%

Structure (SMILES): N=C(N)NCCC[C@H](N)C(=O)O [arginine, L-Arginine]
- animals died before the end of the protocol [5]: two animals
- effect on the plasmatic cholesterol ([2]; 8 weeks treatment, versus control at T8, FIG. 3): no effect
- effect on the lipid profile ([2]; arginine diet alone): no appreciable effect
- increase in the plasmatic cholesterol concentration ([2]; between T0 and T8): 30%
- plasmatic triglycerides concentration, course ([2]; between T0 and T8, FIG. 4): increases with age; also recorded: increase by more than half
- atheromatous plaque area [6]: stabilization
- lesion surface smaller than the control by a factor ([7]; T8): 1.3
- surface area of the lesions (whole aorta) ([7]; T8, versus the control, FIG. 10): smaller
- surface area of the lesions, distal half of the aorta ([7]; T8, FIG. 11): no effect
- L-Arginine concentration in general [8]: doubled
- plasmatic arginine concentration, at T4 [8]: doubled
- plasmatic arginine concentration, at T8 [8]: drops

From patent publication US20080312263A1, “PHARMACEUTICAL COMPOSITIONS FOR THE PREVENTION AND TREATMENT OF ATHEROSCLEROSIS” (UNIVERSITE RENE DESCARTES-PARIS 5, priority 2004, published 2008)
